Data published in US20180280480A1, “COMPOSITIONS AND PEPTIDES HAVING DUAL GLP-1R AND GLP-2R AGONIST ACTIVITY” (priority 2014, published 2018).
Marks after values point to notes of the source that are not given here.

How the values were obtained:
[1] = test system: C57BL/6J mice; test: GLP1R-GLP2R dual agonist compound study: cumulative food intake; type: in vivo
Excerpt: Forty (40, n=10, 4 groups) male C57BL/6J mice obtained from Taconic, Denmark, were used. At the time of the experiment, the mice had reached an age of 9-10 weeks. The mice were acclimatized for one week in their new environment and offered regular chow diet (Altromin 1324, Brogaarden A/S, Denmark) and domestic quality tap water. Animals were housed two per cage during the study, in a light-, temperature-, and humidity-controlled room (12-hour light: 12-hour dark cycle, lights on/off at 4 AM/4 PM hour; 22±1° C.; 50±10% relative humidity). […] Animals were uniquely identified with implantable microchips (Pet ID Microchip, E-vet) in all mice upon arrival. Animals were identified using the WS-2 weight station (MBrose ApS, Faaborg, Denmark) connected to a laptop running the HM02Lab software (Ellegaard Systems, Faaborg, Denmark). The HM02Lab software matches the body weight with ID and calculates the dose directly based on the body weight. All mice were handled for 3 days prior to the experiment to acclimatize the animals to handling and injections.

[2] = test system: Diet Induced Obese (DIO) Sprague-Dawley Rats; test: Small and large intestinal volume (stereology) in DIO Sprague-Dawley rats; type: in vivo
Method: Thirty (30) male Sprague-Dawley rats (7 weeks of age) were purchased from Taconic (Denmark) and transferred to the Gubra animal unit. During the acclimatization period, the rats were housed two per cage under a 12:12 light dark cycle (lights on from 04.00-16.00 h) at controlled temperature conditions (22±1° C.; 50±10% relative humidity). Throughout the study the rats had ad libitum access to a two choice diet—regular Altromin 1324 rodent chow (Brogaarden, Denmark) and a paste made from Chocolate spread (Nutella, Ferrero Italy), peanut butter and powdered regular Altromin 1324 rodent chow (Brogaarden, Denmark). The animals were kept on the diet for 65 weeks before experimentation. Animals were switched to single housing during the entire study period (day −6 to 25).
The animals were randomized into three study groups (n=10 per group) based on body weight recorded on day −1 to participate in one of the following groups: Group 1: Vehicle, SC, BID. Group 2: SEQ ID NO 6, 82 nmol/kg (day 2-7), 164 nmol/kg (day 8-14) and 328 nmol/kg (day 15-25), SC, BID. […] Body weight was measured from day −3 to termination on day 25. Total body fat mass was analyzed before study start (day −1) and before termination (study day 25) by non-invasive EchoMRI-900 (EchoMRI, USA). […] Blood glucose was measured from tail vein blood before (t=−120 and 0 min, baseline) and after glucose administration (t=15, 30, 60 and 120 min). Blood samples was collected into 10 μl heparinized glass capillary tubes and immediately suspended in buffer (0.5 ml of glucose/lactate system solution (EKF-diagnostics, Germany) and analyzed for glucose on the test day using a BIOSEN c-Line glucose meter (EKF-diagnostics, Germany) according to manufacturer's instructions. On study day 25, the rats were terminated and the GI tract was removed. Intestines were flushed with saline, weighed and then fixated in 4% PFA for determination of small and large intestinal volume by stereological methods as described by Hansen et al. 2013, Am J Transl Res 5(3): 347-58).

[3] = test system: Diet Induced Obese (DIO) Sprague-Dawley Rats; test: Oral glucose tolerance test in DIO Sprague-Dawley rats; type: in vivo
[4] = target: T1, GLP-2R (Homo sapiens, UniProt O95838); test: GLP2 receptor efficacy assay (in vitro functional screen, Euroscreen or DiscoveRx); details: Table 1
T1 sequence (O95838 1-553): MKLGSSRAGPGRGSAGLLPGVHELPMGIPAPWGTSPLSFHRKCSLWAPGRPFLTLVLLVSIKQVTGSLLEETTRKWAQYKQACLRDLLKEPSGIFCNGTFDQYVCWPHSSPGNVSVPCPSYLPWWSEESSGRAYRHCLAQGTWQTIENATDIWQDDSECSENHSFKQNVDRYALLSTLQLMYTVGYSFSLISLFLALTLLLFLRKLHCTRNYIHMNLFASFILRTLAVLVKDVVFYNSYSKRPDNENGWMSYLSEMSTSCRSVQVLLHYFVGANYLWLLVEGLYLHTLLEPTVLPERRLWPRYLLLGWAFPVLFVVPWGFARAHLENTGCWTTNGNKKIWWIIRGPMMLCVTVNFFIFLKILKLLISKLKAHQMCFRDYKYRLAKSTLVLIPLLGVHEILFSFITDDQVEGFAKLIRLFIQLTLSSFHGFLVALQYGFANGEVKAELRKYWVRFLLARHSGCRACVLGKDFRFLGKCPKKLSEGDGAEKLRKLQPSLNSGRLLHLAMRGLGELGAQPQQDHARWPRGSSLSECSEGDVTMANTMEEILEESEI

[5] = Day 25, 328 nmol/kg, mean ± S.E.M.

R^1-HGDGSFTSELSTYLDALAARDFIAWLIQTKITDR^2 [SEQ ID NO 6]
Cumulative food intake ([1]; Day 0-7, 3.0 mg/kg BID SC, mean ± S.E.M.): 21.96 ± 1.46 g
cumulative food intake compared to vehicle and teduglutide ([1]; dosed twice daily for 7 days): considerably reduced cumulative food intake
Large intestine volume [2, 5]: 2.64 ± 0.17 cm^3
Small intestine volume [2, 5]: 8.50 ± 0.62*** cm^3
effect on small intestine volume ([2]; treatment for 25 days, stereology): striking increase in small intestine volume
effect on glucose tolerance ([3]; DIO rats, Table 15): improved glucose tolerance
Blood glucose during an oral glucose tolerance test. Area under the curve (AUC) −45 to 240 min. ([3]; Day 23, 328 nmol/kg, mean ± S.E.M.): 1731 ± 77.0 mmol·min/L
ranking of GLP-2 receptor potency [4]: most potent GLP-2 receptor agonist
